Measured values from patent US10125095B2, “Abscisic acid derivative” (NATIONAL UNIVERSITY CORPORATION SHIZUOKA UNIVERSITY, priority 2014, dated 2018).

Tests used:
[1] = tested on: seeds of thale cress (Arabidopsis thaliana, Col-0); assay: Thale cress seed germination test; type: in vivo
Experimental: Seeds of thale cress (Arabidopsis thaliana, Col-0) were immersed in 500 μL of an aqueous solution of 70% ethanol for 30 minutes, subsequently in 500 μL of a 100% ethanol solution for 1 minute, washed five times in 1 mL of distilled water, then immersed in distilled water and, in a dark place, vernalized at 4° C. for 3 days. A solution of the sample in methanol was put in a 1.5 mL-microtube, and methanol was removed therefrom under reduced pressure. An aqueous solution of 0.5% agar (containing ½ MS medium inorganic salts) at 70° C. was added thereto and stirred, and subsequently the obtained mixture was placed in a 96-well plate to prepare the medium containing the sample. All samples were prepared so as to have a concentration of 3 μM of the compound in Examples 1 to 9 and Comparative Example 1. Further, when ABA is applied, the ABA concentration was adjusted to 0.3 μM. 20 to 30 vernalized seeds of thale cress were planted in each well and cultured at 22° C. under continuous light to monitor the number of seeds germinated over time. The germination rate was calculated by the following formula (1). Note that those cultured in medium prepared using methanol in the same manner were used as controls. […] Germination rate (%)=Number of seeds germinated/Number of seeds planted×100 (1)
The same test was carried out as in Test Example 1 with the concentrations of the compound of Example 1 for treatment varying from 0.3 μM to 30 μM.
Similarly, the same test was carried out with the concentrations of the compound of Example 2 for treatment varying from 0.3 μM to 30 μM.
The same test was carried out as in Test Example 2 with the concentrations of the compounds for treatment varying from 0.3 μM to 3 μM to compare the recovery effects on seed germination rate of the compound of Example 1 and the compound of Comparative Example 1.

[2] = molecular target: T1, PYR1 (Arabidopsis thaliana, UniProt O49686); assay: Protein dephosphorylation enzyme activity test, PYR1; type: biochemical, thale cress; conditions: control = 100%
T1 construct: 6xHis (N); made in house; host or cells: Escherichia coli BL21-codonplus(DE3)-RIPL (PYL); BL21(DE3)pLysS (HAB1)
T1 sequence (O49686 1-191): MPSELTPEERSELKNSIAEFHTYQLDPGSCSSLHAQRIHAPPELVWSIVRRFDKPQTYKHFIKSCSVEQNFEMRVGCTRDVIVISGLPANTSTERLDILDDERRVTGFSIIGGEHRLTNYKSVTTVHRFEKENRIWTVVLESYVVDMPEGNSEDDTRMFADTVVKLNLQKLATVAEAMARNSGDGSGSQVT
Experimental: A plasmid (pGex-2T-GST-HAB1 or pET28-6×His-PYL) encoded with PYR/PYL/RCAR proteins (PYL, abscisic acid receptor) or protein dephosphorylation enzyme HAB1 of thale cress was transformed to Escherichia coli (HAB1:BL21(DE3)pLysS, PYL:BL21-codonplus(DE3)-RIPL). Isopropyl-β-thiogalactopyranoside was added to the culture broth, which had been subjected to pre-culture (30° C., 180 rpm, 15 hours) and main culture (30° C., 180 rpm, 4 hours), and the protein-expressed (16° C., 150 rpm, 18 hours) crude enzyme solution was purified using FPLC thereby preparing the recombined PYL (PYR1, PYL1-6, PYL8-10) and HAB1. β-Mercaptoethanol, a manganese chloride aqueous solution, HAB1, PYL, a solution of the sample in dimethylsulfoxide and ultrapure water were sequentially added to a 96-well plate, allowed to stand at 22° C. for 30 minutes. Subsequently p-nitrophenylphosphate, which is the artificial substrate of HAB1, was added thereto to start the reaction, and the plate was placed in a microplate reader (TECAN, Infinite™ N200 NanoQuant). The absorbance at 405 nm due to p-nitrophenol, which is the hydrolysate of p-nitrophenylphosphate, was measured 3 minutes later from the reaction initiation, and HAB1 activity was calculated by the following formula (2). Note that the fraction to which only dimethylsulfoxide was added was considered to be the control and the activity thereof was defined as 100%. […] HAB1 specific activity (%)=Absorbance when sample was added/Absorbance of control×100 (2)

[3] = molecular target: T2, recombined PYL5 (Arabidopsis thaliana, UniProt Q9FLB1); assay: Bonding affinity measurement using an isothermal titration calorimeter; type: binding, thale cress; conditions: ITC, 20° C., sodium phosphate buffer
T2 construct: 6xHis (N); made in house; host or cells: Escherichia coli BL21-codonplus(DE3)-RIPL
T2 sequence (Q9FLB1 1-203): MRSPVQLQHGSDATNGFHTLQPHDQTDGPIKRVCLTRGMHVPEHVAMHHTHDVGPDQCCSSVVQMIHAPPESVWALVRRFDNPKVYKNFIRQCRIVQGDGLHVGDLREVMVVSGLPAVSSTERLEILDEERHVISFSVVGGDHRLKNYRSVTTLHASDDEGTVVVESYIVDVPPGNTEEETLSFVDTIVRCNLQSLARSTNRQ
Experimental: A sodium phosphate buffer solution of a recombined PYL5 was prepared in the same procedure as in Test Example 5, and put in a reaction cell of an isothermal titration calorimeter (GE Healthcare, MicroCal iTC200), and a sodium phosphate buffer solution of the compound of Example 1 was put in the syringe. Then, the calorimeter was set to 20° C. and the measurement was carded out. The same measurement as above was also carried out for the compounds of Examples 7 to 9.

[4] = 3 μM compound co-applied with 0.3 μM ABA

| Compound | HAB1 Specific activity (%) PYR1 ([2]; ABA + compound) [%] | HAB1 Specific activity (%) PYR1 ([2]; sample alone) [%] | Kd [3] [nM] | ΔG [3] [kcal/mol] | ΔH [3] [kcal/mol] | −TΔS [3] [kcal/mol] | Germination rate (%) 24 Hours later [1, 4] [%] | Germination rate (%) 36 Hours later [1, 4] [%] | Germination rate (%) 48 Hours later [1, 4] [%] | Germination rate (%) 60 Hours later [1, 4] [%] | Germination rate (%) 24 Hours later ([1]; compound alone, 3 μM) [%] | Germination rate (%) 36 Hours later ([1]; compound alone, 3 μM) [%] | Germination rate (%) 48 Hours later ([1]; compound alone, 3 μM) [%] | Germination rate (%) 60 Hours later ([1]; compound alone, 3 μM) [%] |
| --- | --- | --- | --- | --- | --- | --- | --- | --- | --- | --- | --- | --- | --- | --- |
| C#CCO[C@@H]1C=C(C)[C@](O)(/C=C/C(C)=C\C(=O)O)C(C)(C)C1 [Example 3, (2Z,4E)-5-((1S,4S)-1-hydroxy-2,6,6-trimethyl-4-(prop-2-yn-1-yloxy)cyclohex-2-en-1-yl)-3-methylpenta-2,4-dienoic acid] |  |  |  |  |  |  | 0 | 6.9 | 20.7 | 48.3 | 0 | 13.3 | 60 | 71.1 |
| CC(=O)c1ccc(C#CCO[C@@H]2C=C(C)[C@](O)(/C=C/C(C)=C\C(=O)O)C(C)(C)C2)cc1 [Example 6, (2Z,4E)-5-((1S,4S)-1-hydroxy-2,6,6-trimethyl-4-((3-(4-acetyl)phenylprop-2-yn-1-yl)oxy)cyclohex-2-en-1-yl)-3-methylpenta-2,4-dienoic acid] | 41.5 | 87.9 |  |  |  |  | 7 | 28 | 52 | 72 | 0 | 17 | 75 | 92 |
| CC1=C[C@@H](OCCCc2ccccc2)CC(C)(C)[C@@]1(O)/C=C/C(C)=C\C(=O)O [Example 9] | 32.1 | 87.8 | 360 ± 70 | -8.6 ± 0.1 | -6.7 ± 0.1 | -2.0 | 0 | 60 | 100 | 100 | 1 | 88 | 100 | 100 |

Second part, led by results:

| HAB1 Specific activity (%) PYR1 ([2]; ABA + compound) [%] | HAB1 Specific activity (%) PYR1 ([2]; sample alone) [%] | Kd [3] [nM] | ΔG [3] [kcal/mol] | ΔH [3] [kcal/mol] | −TΔS [3] [kcal/mol] | Compound | Germination rate (%) 24 Hours later [1, 4] [%] | Germination rate (%) 36 Hours later [1, 4] [%] | Germination rate (%) 48 Hours later [1, 4] [%] | Germination rate (%) 60 Hours later [1, 4] [%] | Germination rate (%) 24 Hours later ([1]; compound alone, 3 μM) [%] | Germination rate (%) 36 Hours later ([1]; compound alone, 3 μM) [%] | Germination rate (%) 48 Hours later ([1]; compound alone, 3 μM) [%] | Germination rate (%) 60 Hours later ([1]; compound alone, 3 μM) [%] |
| --- | --- | --- | --- | --- | --- | --- | --- | --- | --- | --- | --- | --- | --- | --- |
| 36.7 | 55.4 |  |  |  |  | CC1=C[C@@H](OCC#Cc2ccc(C(F)(F)F)cc2)CC(C)(C)[C@@]1(O)/C=C/C(C)=C\C(=O)O [Example 4, (2Z,4E)-5-((1S,4S)-1-hydroxy-2,6,6-trimethyl-4-((3-(4-trifluoromethyl)phenylprop-2-yn-1-yl)oxy)cyclohex-2-en-1-yl)-3-methylpenta-2,4-dienoic acid] | 0 | 29 | 58 | 100 | 8 | 33 | 75 | 92 |
| 50.5 | 92.3 |  |  |  |  | COc1ccc(C#CCO[C@@H]2C=C(C)[C@](O)(/C=C/C(C)=C\C(=O)O)C(C)(C)C2)cc1 [Example 5, (2Z,4E)-5-((1S,4S)-1-hydroxy-2,6,6-trimethyl-4-((3-(4-methoxy)phenylprop-2-yn-1-yl)oxy)cyclohex-2-en-1-yl)-3-methylpenta-2,4-dienoic acid] | 0 | 30 | 67 | 100 | 5 | 37 | 79 | 95 |
| 62.9 | 105 | 180 ± 10 | -9.0 ± 0.1 | -4.9 ± 0.1 | -4.1 | CC1=C[C@@H](OCC#Cc2ccc(S(F)(F)(F)(F)F)cc2)CC(C)(C)[C@@]1(O)/C=C/C(C)=C\C(=O)O [Example 8] | 0 | 0 | 23 | 89 | 0 | 60 | 100 | 100 |
